Experimental data: US3982931A, “N,N-di-sec.butyl-benzamide herbicides” (priority 1967, dated 1976)
Blank lines part the entries; values can stand above or below the compound they belong to.

Assays:
[1] = system: useful plants; experiment: phytotoxic action on useful plants (general statements); assay type: in vivo, useful gramineae; conditions: in words
From the text: (§1) It is understood that all the data given herein shall have no limiting character on the object of this invention.

[2] = system: infesting gramineae; experiment: herbicidal action on infesting plants (general statements); assay type: in vivo; conditions: in words
From the text: as §1

[3] = system: chenopodium album L.; experiment: herbicidal activity, soil treatment one day after sowing; assay type: in vivo
[4] = system: setaria glauca L.; experiment: as above; assay type: in vivo
[5] = system: oryza sativa L. (rice); experiment: activity on agrarian species, soil treatment one day after sowing; assay type: in vivo
From the text: (§2) The infesting species and the agrarian species have been indicated in Table 1 by letters, as follows:
P = oryza sativa L. (rice)
(§3) Method of evaluation of the results (of tests):
(§4) 0 = no activity and no difference with respect to the control;
(§5) 1 slight differences with respect to the control;
(§6) 3 = considerable activity with damages that definitely impair the further development of most of the small plants; an activity degree already useful for practical purposes;
(§7) 4 = maximum of activity with lack of germination or total containment of the small plants in the emerging stage.
(§8) In the case of an intermediate activity between two classes of the scale, both values are recorded with the one which corresponds to the preeminent activity preceding.
(§9) TABLE 2 reports the activity data of other compounds that fall within the class which is the object of this invention.
(§10) TABLE 3 reports data on the herbicidal activity against infesting herbs, while TABLE 4 reports data concerning the activity on useful species of agricultural cultivations. These tables employ the criterion explained previously. The product was spread on the soil one day after sowing, in quantities of 1, 3, 6, 8, 10, 12 and 14 kg/ha.

[6] = system: solanum Lycopersicum L.; experiment: as above; assay type: in vivo
From the text: as §2
M = solanum Lycopersicum L.
as §3, §4, §5, §6, §7
In the case of an intermediate activity between two classes of the scale, both values are recorded with the one which corresponds to the preeminent activity preceding. […]

[7] = system: avena sativa (oats); experiment: as above; assay type: in vivo, Avena sativa L.
From the text: as §2, §3, §4, §5, §6, §7, §8, §9, §10

[8] = system: phaseolus vulgaris (bean); experiment: as above; assay type: in vivo, Phaseolus vulgaris L.
From the text: as §2
I = phaseolus vulgaris (bean)
as §3, §4, §5, §6, §7, §8, §9, §10

[9] = system: artemisia vulgaris L.; experiment: herbicidal activity, soil treatment one day after sowing; assay type: in vivo
[10] = system: triticum vulgare L. (wheat); experiment: activity on agrarian species, soil treatment one day after sowing; assay type: in vivo
From the text: as §2
N = triticum vulgare L. (wheat)
as §3, §4, §5, §6, §7, §8, §9, §10

[11] = system: beta vulgaris L. (sugar-beet); experiment: as above; assay type: in vivo
From the text: as §2
H = beta vulgaris L. (sugar-beet)
as §3, §4, §5, §6, §7, §8, §9, §10

[12] = system: echinocloa crus-galli R.S.; experiment: herbicidal activity, soil treatment one day after sowing; assay type: in vivo
[13] = system: pisum sativum L. (pea); experiment: activity on agrarian species, soil treatment one day after sowing; assay type: in vivo
From the text: as §2
L = pisum sativum L. (pea)
as §3, §4, §5, §6, §7, §8, §9
TABLE 3 reports data on the herbicidal activity against infesting herbs, while TABLE 4 reports data concerning the activity on useful species of agricultural cultivations. These tables employ the criterion explained previously. […]

[14] = system: zea mais L. (corn); experiment: as above; assay type: in vivo
From the text: as §2, §3, §4, §5, §6, §7, §8, §9, §10

[15] = system: vicia sativa L.; experiment: herbicidal activity, soil treatment one day after sowing; assay type: in vivo
Procedure, shortened: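 Pre-emergence soil treatment one day after sowing; activity scored visually on a […] scale against untreated control, from slight difference (1) to no germination or total containment at emergence (4); intermediate activity recorded as both classes, preeminent value first.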

[16] = system: amaranthus retroflexus L.; experiment: as above; assay type: in vivo
[17] = system: avena sativa (oats); experiment: activity on agrarian species, soil treatment one day after sowing; assay type: in vivo, Avena sativa L.; remark: listed apart in the source
[18] = system: Echinocloa crus-galli; experiment: Example 1 pot test, submerged rice-field earth, granular composition; assay type: in vivo; conditions: 3 kg/ha of active principle
Protocol: (§11) A series of pots were prepared filled with rice-field earth. Into these were then sown Echinocloa crus-galli and rice. The earth was then submerged by 10 cm of water and immediately thereafter were uniformly spread on the submerged soil granular compositions, some of them containing 2% of PA 234 and 98% of phosphorite, some others 5% of PA 234 and 95% of bentonite, in doses graduated from 0 - 8 kg of active principle per hectar. The test pots were kept in a conditioned environment at controlled temperature and photo-period.

[19] = system: rice; experiment: as above; assay type: in vivo; conditions: maximum dose; doses 0 - 8 kg/ha
Protocol: as §11

Compound: CCCN(CCC)C(=O)c1cc(Cl)cc(Cl)c1 [3,5-dichloro-N,N-di-n.propyl-benzamide]
phytotoxic action on useful plants [1]: phytotoxic action of considerable intensity | herbicidal action [2]: very active

activity on P, 0-4 scale ([5]; in vivo): 0 | activity on M, 0-4 scale ([6]; in vivo): 1 | activity on G, 0-4 scale ([7]; in vivo): 0 | activity on I, 0-4 scale ([8]; in vivo): 0 | activity on N, 0-4 scale ([10]; in vivo): 0 | activity on H, 0-4 scale ([11]; in vivo): 2 | activity on L, 0-4 scale ([13]; in vivo): 0 | activity on O, 0-4 scale ([14]; in vivo): 0
Compound: CCC(C)N(C(=O)c1c(Cl)cccc1Cl)C(C)CC (stereo not drawn) [PA227, 2,6-dichloro-N,N-di-sec.butyl-benzamide]
activity on C, 0-4 scale ([3]; 2 kg/ha): 1 | activity on C, 0-4 scale ([3]; 4 kg/ha): 2 | activity on C, 0-4 scale ([3]; 6 kg/ha): 3-4 | activity on E, 0-4 scale ([4]; 2 kg/ha): 2 | activity on E, 0-4 scale ([4]; 4 kg/ha): 3 | activity on E, 0-4 scale ([4]; 6 kg/ha): 4 | activity on B, 0-4 scale ([9]; 2 kg/ha): 0-1 | activity on B, 0-4 scale ([9]; 4 kg/ha): 1-2 | activity on B, 0-4 scale ([9]; 6 kg/ha): 2 | activity on D, 0-4 scale ([12]; 2 kg/ha): 2 | activity on D, 0-4 scale ([12]; 4 kg/ha): 3 | activity on D, 0-4 scale ([12]; 6 kg/ha): 4 | activity on F, 0-4 scale ([15]; 2 kg/ha): 0 | activity on F, 0-4 scale ([15]; 4 kg/ha): 0 | activity on F, 0-4 scale ([15]; 6 kg/ha): 0 | activity on A, 0-4 scale ([16]; 2 kg/ha): 1-2 | activity on A, 0-4 scale ([16]; 4 kg/ha): 3

Compound: CCC(C)N(C(=O)c1cc(Cl)cc(Cl)c1)C(C)CC (stereo not drawn) [PA234, 3,5-dichloro-N,N-di-sec.butyl-benzamide]
activity on G, 0-4 scale ([17]; 2 kg/ha): 0 | activity on G, 0-4 scale ([17]; 4 kg/ha): 0 | activity on C, 0-4 scale ([3]; 2 kg/ha): 1 | activity on C, 0-4 scale ([3]; 4 kg/ha): 2-1 | activity on C, 0-4 scale ([3]; 6 kg/ha): 2 | activity on E, 0-4 scale ([4]; 0-5 kg/ha (so in the source)): 3-2 | activity on E, 0-4 scale ([4]; 0.5 kg/ha): 3-2 | activity on E, 0-4 scale ([4]; 1 kg/ha): 3-4 | activity on E, 0-4 scale ([4]; 2 kg/ha): 4 | activity on E, 0-4 scale ([4]; 4 kg/ha): 4 | activity on E, 0-4 scale ([4]; 6 kg/ha): 4 | activity on P, 0-4 scale ([5]; 6 kg/ha): 0 | growth of Echinocloa crus-galli [18]: totally inhibited | damage to rice [19]: remained undamaged | activity on M, 0-4 scale ([6]; 2 kg/ha): 1 | activity on M, 0-4 scale ([6]; 4 kg/ha): 1 | activity on M, 0-4 scale ([6]; 6 kg/ha): 1 | activity on G, 0-4 scale ([7]; 6 kg/ha): 0 | activity on I, 0-4 scale ([8]; 2 kg/ha): 0 | activity on I, 0-4 scale ([8]; 4 kg/ha): 0 | activity on I, 0-4 scale ([8]; 6 kg/ha): 0 | activity on B, 0-4 scale ([9]; 2 kg/ha): 0-1 | activity on B, 0-4 scale ([9]; 4 kg/ha): 1 | activity on B, 0-4 scale ([9]; 6 kg/ha): 1-2 | activity on N, 0-4 scale ([10]; 2 kg/ha): 0 | activity on N, 0-4 scale ([10]; 4 kg/ha): 0 | activity on N, 0-4 scale ([10]; 6 kg/ha): 0 | activity on H, 0-4 scale ([11]; 2 kg/ha): 0 | activity on H, 0-4 scale ([11]; 4 kg/ha): 1 | activity on H, 0-4 scale ([11]; 6 kg/ha): 1 | activity on D, 0-4 scale ([12]; 0-5 kg/ha (so in the source)): 2-1 | activity on D, 0-4 scale ([12]; 0.5 kg/ha): 2-1 | activity on D, 0-4 scale ([12]; 1 kg/ha): 2-3 | activity on D, 0-4 scale ([12]; 2 kg/ha): 4 | activity on D, 0-4 scale ([12]; 4 kg/ha): 4 | activity on D, 0-4 scale ([12]; 6 kg/ha): 4 | activity on L, 0-4 scale ([13]; 2 kg/ha): 0 | activity on L, 0-4 scale ([13]; 4 kg/ha): 0 | activity on L, 0-4 scale ([13]; 6 kg/ha): 0 | activity on O, 0-4 scale ([14]; 2 kg/ha): 0 | activity on O, 0-4 scale ([14]; 4 kg/ha): 0 | activity on O, 0-4 scale ([14]; 6 kg/ha): 0 | activity on F, 0-4 scale ([15]; 2 kg/ha): 0 | activity on F, 0-4 scale ([15]; 4 kg/ha): 0 | activity on F, 0-4 scale ([15]; 6 kg/ha): 0 | activity on A, 0-4 scale ([16]; 2 kg/ha): 1-2 | activity on A, 0-4 scale ([16]; 4 kg/ha): 2 | activity on A, 0-4 scale ([16]; 6 kg/ha): 2-3
